# Data taken from patent US20180339066A1, “Methods and Compositions for Enhancing Transduction Efficiency of Retroviral Vectors” (The Scripps Research Institute, priority 2013, published 2018).
# Columns and labels:
# [1] = system: human cord blood CD34+ cells; experiment: HIV-1 based lentiviral vector transduction of cord blood CD34+ cells, GFP by flow cytometry; type: cell-based; settings: for transduction efficiency: added with vector or delayed by 2 or 6 hours
# [2] = system: primitive HSCs (serial repopulating cells); experiment: Serial NSG mouse transplantation of transduced cord blood CD34+ cells; type: in vivo, human
# Experimental: (§1) Colony forming assay, NSG mouse reconstitution, and serial transplantation. For colony forming assays, transduced cord blood CD34^+ HSPCs were counted and 100 cells were seeded in 1.5 ml methocult4434 (StemCell Technologies) in 30 mm dishes in triplicate. Total BFU-E, CFU-GM, CFU-M, and CFU-GEMM colonies, as well as GFP+ colonies, were counted 16-18 days after plating using a fluorescent microscope. […] Mice were bled every 4 weeks starting from 8 weeks post injection, and sacrificed at 19 weeks to assess engraftment and GFP expression in the bone marrow, spleen, and thymus by flow cytometry. For serial transplantation, primary recipients were sacrificed at 12 weeks post injection, and bone marrow cells from both femurs of one mouse were injected into two irradiated secondary recipients, which were again sacrificed at 12 weeks post injection for flow cytometric analysis of bone marrow and spleen. NSG mice were maintained at the Scripps Research Institute Molecular and Experimental Medicine animal facility.
# To stringently establish transduced cells as primitive HSCs, we carried out serial NSG mouse transplantation with cord blood CD34^+ cells transduced with or without rapamycin. […] Bone marrow cells of secondary recipients were again analyzed 12 weeks post injection.
# NSG-repopulating cells = experiment: NSG mouse reconstitution with transduced cord blood CD34+ cells (long-term engraftment); type: in vivo, human
# Experimental: as §1
# To determine whether primitive HSCs in the heterogeneous CD34^+ population are transduced in the presence of rapamycin, we tested the ability of transduced cord blood CD34^+ cells to engraft irradiated NSG mice. A fraction of transduced cells was assessed in parallel liquid culture and colony forming assays. […] Mice were sacrificed 19 weeks after injection to assess long-term engraftment. […] This four-fold transduction enhancement in NSG-repopulating cells was more pronounced than in parallel liquid culture or CFU assay (FIG. 2C), indicating preferential transduction of primitive HSCs in the presence of rapamycin.
# cord blood CD34+ cells = experiment: Colony forming assay and parallel liquid culture of transduced cord blood CD34+ cells; type: cell-based, human; settings: stimulated cord blood CD34+ cells, MOI=25
# Experimental: as §1
# To determine whether primitive HSCs in the heterogeneous CD34^+ population are transduced in the presence of rapamycin, we tested the ability of transduced cord blood CD34^+ cells to engraft irradiated NSG mice. A fraction of transduced cells was assessed in parallel liquid culture and colony forming assays. […]
# [3] = system: stimulated cord blood CD34+ cells; experiment: Quantification of HIV-1 reverse transcription products by qPCR; settings: MOI=25, 20 μg/ml rapamycin
# Experimental: Quantification of HIV-1 reverse transcription products. Stimulated cord blood CD34^+ cells (2-3E5) were transduced with an MOI of 25 in the presence of 20 μg/ml rapamycin or DMSO, and harvested at 6, 12, or 24 hours after the start of transduction by freezing cell pellets at −80° C. Total DNA was extracted using the QiaAmp DNA mini kit, and treated with Dpnl for 2-4 hours to eliminate plasmid DNA. Quantitative PCR was carried out on the Roche LightCycler 480 using previously published primer and probe sequences (Prasad et al., HIV Protocols: Second Edition 485, 2009).
# p21 mRNA = p21 mRNA quantification by RT-PCR; settings: cord blood CD34+ cells, 20 μg/ml rapamycin, 6 hours
# [4] = system: human cord blood CD34+ cells; experiment: Integrase-defective lentiviral vector (IDLV) transduction of cord blood CD34+ cells; settings: MOI=50, two days after transduction
# Experimental: Human cord blood CD34^+ cells were stimulated for 24 h and transduced with IDLVs, MOI=50, with or without 10 ng/μl rapamycin. GFP expression was assayed by flow cytometry every three days from 2-14 days post transduction. Data represent mean and standard deviation of independent transductions of two separate donors.
# Cord blood CD34^+ cells were transduced with IDLVs in the absence or presence of rapamycin, and GFP expression was followed from 2-14 days post transduction.
# [5] = NSG mice, 19 weeks after injection
smiles,measurement,setting,value
"Cn1cnc(N)c2ncnc1-2 [3-methyadenine, 3-methyladenine]",GFP expression,[1]; autophagosome formation inhibited during transduction,decreased
CCC(=O)N1CCN(c2ccc(-n3c(=O)ccc4cnc5ccc(-c6cnc7ccccc7c6)cc5c43)cc2C(F)(F)F)CC1 [Torin 1],in vitro transduction efficiency relative to DMSO control,[1]; 5 μM,enhanced
same,transduction enhancement compared with rapamycin,[1]; 5 μM,comparable
CO/C1=C\C(C)=C\[C@@H](C)[C@@H](O)[C@@H](C)C/C(C)=C/C=C/[C@H](OC)[C@@H]([C@@H](C)[C@@H](O)[C@H](C)[C@@]2(O)C[C@@H](O)[C@H](C)[C@@H](C(C)C)O2)OC1=O [bafilomycin Al],transduction efficiency,[1],decreased
CCN(CC)CCCC(C)Nc1ccnc2cc(Cl)ccc12 (stereo not shown) [chloroquine],transduction efficiency,[1],decreased
CO[C@H]1C[C@@H]2CC[C@@H](C)[C@@](O)(O2)C(=O)C(=O)N2CCCC[C@H]2C(=O)O[C@H]([C@H](C)C[C@@H]2CC[C@@H](O)[C@H](OC)C2)CC(=O)[C@H](C)/C=C(\C)[C@@H](O)[C@@H](OC)C(=O)[C@H](C)C[C@H](C)/C=C/C=C/C=C/1C [rapamycin],gene marking frequency relative to other known methods of treatment,[2]; human hematopoietic stem cells,4-5 fold
same,EGFP-marked human cell populations in secondary recipients,[2]; secondary mouse recipients,> 90%
same,GFP positivity in human CD45+ cells in mouse bone marrow,"NSG-repopulating cells; 20 μg/ml rapamycin during transduction, 19 weeks, control 20%",80%
same,long-term engraftment ability of CD34+ cells,NSG-repopulating cells; [5],did not impair
same,reconstitution levels in bone marrow vs control,NSG-repopulating cells; [5],not statistically different
same,efficiency or proportion of colony formation,cord blood CD34+ cells,did not significantly affect
same,increase in per cell amount of 2-LTR circles,[3],2-to-3 fold
same,increase in per cell amount of viral full-length DNA,[3],2-to-3 fold
same,up-regulation in p21 mRNA,p21 mRNA,3-5 fold
same,GFP positivity (percentage of GFP-expressing cells),"[1]; pre-stimulated cord blood CD34+ cells, rapamycin present during transduction, 11-14 days in culture, control 40%",80%
same,increase in percentage of GFP expressing cells,[4],17%
